Literature values in US12343417B2, “Antiperspirant compositions” (Conopco, Inc., priority 2018, dated 2025).

Tested on: Staphylococcus epidermidis
Settings: 80% or greater reduction in growth over 16 to 24 hours at 37° C.

| SMILES | MIC |
| --- | --- |
| CCO [ethanol] | greater than 1 mg·ml^−1 |
| CC(C)=CCCC(C)=CCCC(C)=CCO [farnesol, 3,7,11-trimethyldodeca-2,6, 10-trienol] | ca. 25 μg·ml^−1 |
| Oc1cc(Cl)ccc1Oc1ccc(Cl)cc1Cl [triclosan, 2′,4,4′-trichloro,2-hydroxy-diphenyl ether] | 0.01 to 10 µg/mL |
